Data taken from US6451853B1, “Small molecules that elicit a polarized Th1 response and for modulation of cellular immunity” (Dovetail Technologies, Inc, priority 1998, dated 2002).
Values joined by “and” are separate entries in the source; they are usually repeats but may differ in a detail not shown here. Identical values can stand only once. Like-named read-outs stand apart in the source and are kept apart here.

Assays:
[1] = tested on: surface TNF alpha on human monocytes; test: Surface TNF alpha expression on monocytes by FACS (CD14+ cells); format: cell-based; design: TNF alpha from Monocytes, With BT / change with BT versus without BT: unit not given here; conditions: for TNF alpha from Monocytes, With BT / change with BT versus without BT: 20 mM BT; for surface TNF alpha expression: all drugs 20 mM
Text: The effect of NAC and BT, alone or in combination, on surface TNF alpha expression by stimulated or unstimulated monocytes (prepared from PBM) was examined. […] Table 6. While only a small proportion of T cells from each donor were responsive to the combination NAC/BT, the effect on surface TNF alpha expression in monocytes was significant.

CD-1 mice = conditions: for Mortality: CD-1 mice
[2] = tested on: Cytokine mRNA from T cells (PBMC); test: RNase protection assay of cytokine mRNA in PBMC (T cells), with or without PMA/ionomycin; conditions: for PMA/ionomycin-induced upregulation of TNF alpha message: PMA/ionomycin stimulation
HL60 targets = test: T cell-dependent cytotoxicity toward HL60 targets (MTT reduction assay)
[3] = tested on: TNF-R I on T cells (PBMCs); test: TNF receptor I expression on T cells by FACS
[4] = tested on: Monocyte Chemokine Message levels; test: RNase protection assay of monocyte chemokine message levels; format: cell-based, human; conditions: Media + beta-alethine 20 mM; RPA phosphorimaging normalized on L32
Method: Monocyte expression of chemokines was also assessed in beta-alethine-treated cells (Table 3). While IP-10 expression was decreased by beta-alethine, the levels of the chemoattractants MIP-1a and IL-8 were increased slightly. Bacterial infections are contained by an inflammatory response. MIP-1a recruits macrophages, T cells and eosinophils to the infection site, and IL-8 recruits neutrophils. Therefore both of these chemokines are important in fighting pathogen-induced infections.

in vivo = conditions: both, CD-1, mouse, iv
[5] = tested on: surface TNF alpha on human T cells; test: Surface TNF alpha expression on T cells by FACS (gating on CD3+ cells); conditions: for Change in with BT/without BT: 20 mM BT; for % Positive ± SD (T cells expressing high levels of surface TNF alpha) / MFI ± SD: PMA/ionomycin; for surface TNF alpha, overall MFI: With BT 20 mM; for surface TNF alpha level: unstimulated T cells, BT alone 20 mM, single donor
[6] = tested on: soluble TNF alpha release from human lymphocytes; test: Soluble TNF alpha in supernatants by ELISA; conditions: Media (unstimulated); drugs 20 mM; ELISA standard curve in pg/mL, unit not given
[7] = tested on: panel of human T-cell lines; test: Surface TNF alpha expression on a panel of human T-cell lines; format: cell-based; conditions: data not shown
[8] = Media (no stimulation), individual donors/dates
[9] = Stimulation, individual donors/dates
[10] = BT 27 nM, no stimulation, 6 hours
[11] = BT 2.7 uM, no stimulation, 6 hours
[12] = BT 20 mM, no stimulation, 6 hours
[13] = stimulation 1 micromolar Ionomycin and 10 ng/ml PMA, 48 hrs
[14] = stimulation 1 micromolar Ionomycin and 10 ng/ml PMA, individual donors/dates

NCCC(=O)NCCSSCCNC(=O)CCN [BT, beta-alethine]
TNF alpha from Monocytes, With BT ([1]; Media (no stimulation), 48 hrs): 14.22 | change with BT versus without BT ([1]; Media (no stimulation), 48 hrs): 0.07037 | TNF alpha from Monocytes, With BT [1, 8]: 124.26 and 10.53 and 24.06 | change with BT versus without BT [1, 8]: 78.87 and −44.17 and 18.58 | TNF alpha from Monocytes, With BT ([1]; Stimulation, 48 hrs): 34.59 | change with BT versus without BT ([1]; Stimulation, 48 hrs): −6.107 | TNF alpha from Monocytes, With BT [1, 9]: 71.42 and 202.15 and 41.97 and 143.51 and 87.59 | change with BT versus without BT [1, 9]: 11.54 and 249.1 and −52.59 and 126.7 and 127.7 | surface TNF alpha expression ([1]; stimulated monocytes): induced significant surface TNF alpha expression | surface TNF alpha expression ([1]; unstimulated monocytes): not upregulated | gross pathology at necropsy (CD-1 mice; mouse, in vivo): No gross pathology | Mortality (CD-1 mice; single bolus intravenous dose 67 mg/kg): 0/2 | Mortality (CD-1 mice; single bolus intravenous dose 333 mg/kg): 1/3 | Mortality (CD-1 mice; single bolus intravenous dose 667 mg/kg): 2/2 | % Change GAPDH mRNA [2, 10]: −10.95% | % Change IFNg mRNA [2, 10]: 21.11% | % Change LTb mRNA [2, 10]: 27.48% | % Change TGFb1 mRNA [2, 10]: 26.69% | % Change TNFa mRNA [2, 10]: 10.04% | % Change TNFb mRNA [2, 10]: 42.88% | % Change GAPDH mRNA [2, 11]: −4.78% | % Change IFNg mRNA [2, 11]: 20.17% | % Change LTb mRNA [2, 11]: 25.70% | % Change TGFb1 mRNA [2, 11]: 42.15% | % Change TNFa mRNA [2, 11]: 24.94% | % Change TNFb mRNA [2, 11]: 220.87% | % Change IFNg mRNA [2, 12]: 109.71% and 94.74% and 139.51% | % Change IL-1Ra mRNA [2, 12]: 30.84% | % Change IL-1a mRNA [2, 12]: 9.07% | % Change IL-1b mRNA [2, 12]: 60.09% | % Change IL-2 mRNA [2, 12]: 95.02% | % Change IL-4 mRNA [2, 12]: 135.82% | % Change IL-5 mRNA [2, 12]: 161.15% | % Change IL-8 mRNA [2, 12]: 10.65% | % Change IL-9 mRNA [2, 12]: 22.86% | % Change IL-13 mRNA [2, 12]: 83.76% | % Change IL-15 mRNA [2, 12]: 4.88% | % Change LTN* mRNA [2, 12]: 58.25% | % Change LTb mRNA [2, 12]: 117.13% | % Change MIP-1 alpha mRNA [2, 12]: 25.98% | % Change MIP-1 beta mRNA [2, 12]: −4.79% | % Change RANTES mRNA [2, 12]: −2.09% | % Change TGFb1 mRNA [2, 12]: 82.08% | % Change TNFa mRNA [2, 12]: 168.85% | % Change TNFb mRNA [2, 12]: 77.91% | ratio of TNF alpha: TGF beta message (densitometry) ([2]; PMA/ionomycin + 20 mM BT (PMA/ionomycin alone 3.61)): 7.12 | PMA/ionomycin-induced upregulation of TNF alpha message ([2]; 2.7 mM BT, 6 hours): maintained | PMA/ionomycin-induced upregulation of TNF alpha message ([2]; 20 mM BT, 6 hours): further enhanced | ratio of TNF alpha: TGF beta message (densitometry) ([2]; media + 20 mM BT (media alone 0.092)): 1.36 | T cell dependent cytotoxic activity toward HL60 in the presence of neutralizing anti-TNF alpha antibodies (HL60 targets; 20 mM BT, PMA/ionomycin stimulated, data not shown): inhibited | T cell-Mediated Cytotoxicity, optical density at 540 nm ± SD (HL60 targets; PMA/ionomycin-stimulated T cells, 0.85 mM, 10:1 effector:target, 24 hours): .191 ± .003 | TNF Receptor I Expression (mean fluorescent channel) ([3]; PMA/ionomycin + 20 mM BT, 20 hours): 329 | TNF Receptor I Expression (mean fluorescent channel) ([3]; PMA/ionomycin + 20 mM BT, 45 hours): 548 | TNF Receptor I Expression (mean fluorescent channel) ([3]; PMA/ionomycin + 20 mM BT, 69 hours): 489 | TNF Receptor I Expression (mean fluorescent channel) ([3]; unstimulated, 20 mM BT, 20 hours): 136 | TNF Receptor I Expression (mean fluorescent channel) ([3]; unstimulated, 20 mM BT, 45 hours): 109 | TNF Receptor I Expression (mean fluorescent channel) ([3]; unstimulated, 20 mM BT, 69 hours): 96 | IL-8 message level [4]: 11,615,894 | IP-10 message level [4]: 55,214 | MIP-1 alpha message level [4]: 909,291 | MIP-1 beta message level [4]: 554,709 | LD50 at 2 weeks (in vivo): > 100 mg/kg | Change in with BT/without BT [5, 13]: 84.527% | Change in with BT/without BT [5, 14]: 45.223% and 66.236% and 49.403% and 71.042% and 4.276% and 68.647% and 152.007% and 27.185% and 104.690% and 325.647% | % Positive ± SD (T cells expressing high levels of surface TNF alpha) ([5]; Dose 2.7 mM, 16 hours): 10.86 ± .92% | MFI ± SD ([5]; Dose 2.7 mM, 16 hours): 94.52 ± 1.83 | % Positive ± SD (T cells expressing high levels of surface TNF alpha) ([5]; Dose 20 mM, 16 hours): 24.25 ± 6.25% | MFI ± SD ([5]; Dose 20 mM, 16 hours): 127.37 ± 12.5 | % Positive ± SD (T cells expressing high levels of surface TNF alpha) ([5]; Dose .0085 mM, 16 hours): 4.96 ± .41% | MFI ± SD ([5]; Dose .0085 mM, 16 hours): 59.84 ± 4.08 | % Positive ± SD (T cells expressing high levels of surface TNF alpha) ([5]; Dose .027 mM, 16 hours): 5.18 ± 1.73% | MFI ± SD ([5]; Dose .027 mM, 16 hours): 63.49 ± .28 | % Positive ± SD (T cells expressing high levels of surface TNF alpha) ([5]; Dose .085 mM, 16 hours): 8.4 ± .5% | MFI ± SD ([5]; Dose .085 mM, 16 hours): 74.18 ± 7.98 | % Positive ± SD (T cells expressing high levels of surface TNF alpha) ([5]; Dose .27 mM, 16 hours): 7.33 ± .38% | MFI ± SD ([5]; Dose .27 mM, 16 hours): 71.17 ± .77 | % Positive ± SD (T cells expressing high levels of surface TNF alpha) ([5]; Dose .85 mM, 16 hours): 9.38 ± 1.57% | MFI ± SD ([5]; Dose .85 mM, 16 hours): 81.93 ± 6.33 | time for which increased surface TNF alpha expression was sustained ([5]; PMA/ionomycin-stimulated cells): over 50 hours | surface TNF alpha expression, Time Course ([5]; Pma/iono, 6 hours, 2.7 mM): 149 | surface TNF alpha expression, Time Course ([5]; Pma/iono, 6 hours, each drug 20 mM): 112 | surface TNF alpha expression, Time Course ([5]; Pma/iono, 16 hours, 2.7 mM): 179 | surface TNF alpha expression, Time Course ([5]; Pma/iono, 16 hours, each drug 20 mM): 220 | surface TNF alpha expression, Time Course ([5]; Pma/iono, 24 hours, 2.7 mM): 208 | surface TNF alpha expression, Time Course ([5]; Pma/iono, 24 hours, each drug 20 mM): 226 | surface TNF alpha expression, Time Course ([5]; Pma/iono, 42 hours, 2.7 mM): 120 | surface TNF alpha expression, Time Course ([5]; Pma/iono, 42 hours, each drug 20 mM): 247 | surface TNF alpha expression, Time Course ([5]; Pma/iono, 68 hours, 2.7 mM): 64 | surface TNF alpha expression, Time Course ([5]; Pma/iono, 68 hours, each drug 20 mM): 174 | surface TNF alpha, overall MFI [5, 13]: 146.81 | surface TNF alpha, overall MFI [5, 14]: 164.48 and 83.65 and 123.87 and 25.93 and 48.53 and 105.59 and 435.04 and 25.17 and 508.43 and 292.59 | surface TNF alpha, overall MFI ([5]; stimulation with 1 ng PMA, individual donors): 133.13 and 25.41 | surface TNF alpha level ([5]; 15 hours post-exposure (control 25)): 75 | surface TNF alpha level ([5]; forty hours (control 25)): 100 | surface TNF alpha expression, Time Course ([5]; unstimulated, 6 hours, 2.7 mM): 22 | surface TNF alpha expression, Time Course ([5]; unstimulated, 6 hours, each drug 20 mM): 32 | surface TNF alpha expression, Time Course ([5]; unstimulated, 16 hours, 2.7 mM): 42 | surface TNF alpha expression, Time Course ([5]; unstimulated, 16 hours, each drug 20 mM): 76 | surface TNF alpha expression, Time Course ([5]; unstimulated, 24 hours, 2.7 mM): 47 | surface TNF alpha expression, Time Course ([5]; unstimulated, 24 hours, each drug 20 mM): 67 | surface TNF alpha expression, Time Course ([5]; unstimulated, 42 hours, 2.7 mM): 79 | surface TNF alpha expression, Time Course ([5]; unstimulated, 42 hours, each drug 20 mM): 101 | surface TNF alpha expression, Time Course ([5]; unstimulated, 68 hours, 2.7 mM): 30 | surface TNF alpha expression, Time Course ([5]; unstimulated, 68 hours, each drug 20 mM): 41 | Soluble TNF [6]: 29 | surface TNF alpha expression [7]: induced upregulation
